Columns and labels:
ob/ob(+/+) mice [1] = assay: Insulin-challenge test in ob/ob(+/+) and lean mice; type: in vivo, mouse; settings: vs vehicle-treated group
Text: All animal treatment procedures described in this study were approved by the Animal Care and Use Committee at University of Wyoming (Laramie, Wyo.). Homozygous B6.Vlep/J male mice purchased from the Jackson Laboratory (Bar Harbor, Me.) at age 5 weeks were divided randomly into two weight-matched groups, marked as ob/ob(+/+) control and ob/ob(+/+) treatment (n=12). Number and age-matched normal C57 mice were used as lean control. All animals were maintained on conventional laboratory diet under well-controlled conditions of temperature (22±2° C.), humidity (55±5%) and 12 hours/12 hours light-dark cycle and had ad libitum access to water and standard rodent chow. Cr(D-Phe)3 was provided in the drinking water and, on the basis of water intake, was administered to provide an intake of about 150 μg/kg/day corresponding to about 10-15 μg elemental Cr/kg/day) for ob/ob(+/+) and lean treatment groups. […] The livers of these mice were frozen in liquid nitrogen immediately and stored at −80° C. until use. […] Weights of body and other organs were measured with a standard laboratory scale.
At the end of the treatment schedule, mice were given intraperitoneal injections of insulin (1 U/kg body weight). Blood glucose levels were determined by the tail-clip method at different time points as described hereinabove.

ob/ob(+/+) mice [2] = assay: Intraperitoneal glucose tolerance test (IPGTT) in ob/ob(+/+) and lean mice; type: in vivo, mouse
Text: (§1) All animal treatment procedures described in this example were approved by the animal Care and Use Committee at University of Wyoming (Laramie, Wyo.). Homozygous B6.V-lep ob>/J male mice purchased from the Jackson Laboratory (Bar Harbor, Me.) at age 5 weeks were divided randomly into two weight-matched groups, marked as ob/ob(+/+) control and ob/ob(+/+) treatment (n=10). Number, age and weight matched normal C57 mice were used as lean control. All of these animals were maintained on conventional laboratory diet under well-controlled conditions of temperature (22±2° C.), humidity (55±5%) and 12 hour/12 hour light-dark cycle and had ad libitum access to water and standard rodent chow. Rodent diet and tap water were consumed by mice ad libitum. Cr(pa)3 was provided in the drinking water and, on the basis of water intake, was administered to provide an intake of about 150 μg/kg/day corresponding to about 10-15 μg elemental Cr/kg/day for ob/ob(+/+) and lean treatment groups. The dosage of chromium used was based on earlier animal studies reported with chromium picolinate (Cefalu et al. (2002) J. Nutr., 132:1107-1114).
At the end of the treatment schedule, mice were subjected to the intraperitoneal glucose tolerance test (IPGTT) as described previously (Hintz et al. (2003) Int. J. Obes. Relat. Metab. Disord., 27:1196-1203). Briefly, the mice were fasted for 12 hours and then given intraperitoneal injection of glucose (2 g/kg body weight). Glucose levels were determined in blood drops obtained by clipping the tail of the mice immediately before glucose challenge, as well as at 15, 60 and 120 minutes thereafter. Serum glucose levels were determined using ACCU-CHEK® Advantage® Glucose Analyzer (Roche Diagnostics Corporation, Ind.). Results of IPGTT are also expressed as integrated areas under the curves (AUC) over 120 minutes for glucose calculated by using the WinNonlin software (Pharsight Corporation, Mountain View, Calif.).

[3] = In vitro lipid-peroxidation of rat brain homogenate stimulated by hydrogen peroxide and ascorbate; type: biochemical; settings: rat-brain homogenate 10% w/v, hydrogen peroxide 1 mM, ascorbate 1 mM, 30 min; concentration-dependent
Experimental: The end product of lipid-peroxidation, namely malondialdehyde (MDA), was estimated in the liver tissue homogenates by the colorimetric kit (Bioxytech LPO-586, Portland, Oreg.) using 1,1,3,3-tetra-ethoxypropane as a standard according to the manufacturer's specifications. This assay is based on the reaction of a chromogenic reagent N-methyl-2-phenylindole with MDA at 45° C. which yields a stable chromophore with absorbance maxima at 586 nm. Ability of Cr(D-Phe)3 to inhibit in vitro lipid-peroxidation was assessed in rat-brain homogenates (10% w/v) by incubating Cr(D-Phe)3 in the presence of hydrogen peroxide (1 mM) and ascorbic acid (1 mM) for 30 min at 37° C. followed by measuring MDA as described previously (Sreejayan et al. (1994) J. Pharm. Pharmacol., 46:1013-1016).

Akt [4] = assay: Insulin-stimulated Akt (thr308) phosphorylation, Western blot of 3T3-adipocyte lysates; type: cell-based, mouse
Experimental: (§2) The 3T3-L1-pre-adipocytes were obtained from the American Type Culture Collection and were propagated at 37° C. in DMEM with 10% newborn calf serum plus 50 U/ml penicillin and 50 μg/ml streptomycin in an incubator under a humidified atmosphere of 5% CO2/95% air. Induction of differentiation was done one day post-confluence. Cells were maintained in differentiation medium of the following composition: DMEM, 10% FBS, […] dexamethasone, 0.5 mM 1-isobutyl-3-methylxanthine (IBMX) and ITS for three days. At day 3, the dexamethasone and IBMX were removed with ITS remaining on the cells for an additional two days. Differentiation was allowed to continue in DMEM supplemented with 10% FBS, ITS and the adipocytes were used between day 9 and 14 post-induction. Prior to the cellular assays, cells were serum starved by overnight incubation in DMEM (containing 0.2% serum).
(§3) Cells were lysed in RIPA buffer (150 mM NaCl, 0.25% sodium desoxycholate, 1% NP-40, 1 mM EDTA and 50 mM Tris, pH 7.2) containing 2 mM sodium vanadate, 1 μM PMSF, 1 μM sodium fluoride, 1 μg/ml aprotinin, 1 μg/ml leupeptin, and 1 μM pepstatin and sonicated to reduce the sample viscosity. The lysate was centrifuged at 15000×g for 15 minutes at 4° C. and the protein concentration in the supernatant was determined by the bicinchoninic acid method. Equivalent amounts of proteins were boiled in Laemmli sample buffer. Proteins 10-20 μg were separated on 7.5-10% polyacrylamide gel, and electrophoretically transferred to a nitrocellulose membrane. The membranes were incubated for 1 hour at room temperature in blocking buffer (5% w/v non-fat dry milk in tris buffered saline containing 0.1% Tween 20). Membranes were incubated in appropriate phospho-specific primary antibody for insulin receptor beta or Akt at 1:2500 dilutions in the blocking buffer followed by incubation with horseradish peroxidase-coupled secondary antibodies with appropriate specificity. Immunoreactive bands were visualized using enhanced chemiluminescence reagents (Cell Signaling Technology, Inc, Beverly, Mass.). Blots were then stripped and re-probed with antibodies directed against insulin receptor β and Akt.

pUC19 DNA = assay: Ascorbate-stimulated cleavage of pUC19 DNA; settings: 1.2 μM, ascorbic acid, pUC19 DNA 38 μM
Experimental: DNA cleavage-stimulated by chromium compounds was assessed as described previously (Speetjens et al. (1999) Chem. Res. Toxicol., 12:483-487). All solutions were prepared using Chelex-100 treated water to remove any traces of metal ions. […] Reactions were allowed to proceed 60 minutes at room temperature followed by quenching with 2 μl of nucleic acid sample loading buffer. The mixtures were loaded directly onto a 1% agarose gel pre-stained by ethidium bromide and electrophoresed at 60 V. The gels were photographed on a UV transilluminator.

[5] = Body and organ weight of ob/ob(+/+) mice after 6-week treatment; type: in vivo, mouse
Text: as §1
All animal treatment procedures described in this study were approved by the Animal Care and Use Committee at University of Wyoming (Laramie, Wyo.). […] Weights of body and other organs were measured with a standard laboratory scale.

insulin receptor beta = assay: Insulin-stimulated IRβ tyrosine phosphorylation, Western blot of 3T3-adipocyte lysates; type: cell-based, mouse
Experimental: as §2
as §3, with “Blots were then stripped and re-probed with antibodies directed against insulin receptor β and Akt.” left out

Akt [6] = assay: Hepatic Akt and insulin receptor phosphorylation, Western blot of liver homogenates; type: in vivo, mouse; settings: obese mice
Text: (§4) All animal treatment procedures described in this study were approved by the Animal Care and Use Committee at University of Wyoming (Laramie, Wyo.). Homozygous B6.Vlep/J male mice purchased from the Jackson Laboratory (Bar Harbor, Me.) at age 5 weeks were divided randomly into two weight-matched groups, marked as ob/ob(+/+) control and ob/ob(+/+) treatment (n=12). Number and age-matched normal C57 mice were used as lean control. All animals were maintained on conventional laboratory diet under well-controlled conditions of temperature (22±2° C.), humidity (55±5%) and 12 hours/12 hours light-dark cycle and had ad libitum access to water and standard rodent chow. Cr(D-Phe)3 was provided in the drinking water and, on the basis of water intake, was administered to provide an intake of about 150 μg/kg/day corresponding to about 10-15 μg elemental Cr/kg/day) for ob/ob(+/+) and lean treatment groups. […] The livers of these mice were frozen in liquid nitrogen immediately and stored at −80° C. until use. Blood was collected from the heart, and the serum was extracted by centrifuging the blood at 1000 g at 4° C. and stored at −80° C. Weights of body and other organs were measured with a standard laboratory scale.
Liver tissues lysates were subjected to Western blot analysis as described hereinabove using phospho specific antibodies against Akt. Blots were then stripped and re-probed with antibodies directed against antibodies directed at the total protein.

[7] = Deoxyribose degradation assay for generation of hydroxyl radicals; settings: 1.2 μM
Experimental: The potential of chromium compounds to generate hydroxyl radicals in vitro was assessed by the method reported previously (Halliwell et al. (1987) Anal. Biochem., 165:215-219). Briefly, a reaction mixture containing either chromium picolinate or Cr(pa)3, 2-deoxyribose (4 mM), ascorbic acid (100 μM) and hydrogen peroxide (100 μM) in potassium phosphate buffer (pH 7.4, 10 mM) was incubated at 37° C. for 30 minutes. An aliquot of the mixture was treated with 1% (w/v) thiobarbituric acid and 2.8% (w/v) trichloroacetic acid and heated at 90° C. for 10 minutes, rapidly cooled and the amount of chromogen formed in the sample was measured by its absorption at 532 nm. Ferric-EDTA (100 μM) was used as a positive control.

ob/ob(+/+) mice [8] = assay: Plasma/serum lipids (total cholesterol, HDL) in obese mice; type: in vivo, mouse
Experimental: Specifically, mice were treated with Cr(pa)3 at 150 μg/kg/day for six weeks. Cholesterol levels were determined by using a kit from Equal Diagnostics (Exton, Pa.) following the manufacturer's protocol.
as §4
Serum levels of total cholesterol, high-density-lipoprotein (HDL) and triglycerides were measured using commercial kits (from Equal Diagnostics, Exton, Pa.) and SpectraMax 340PC^384 Microplate Reader System (Molecular Device, Sunnyvale, Calif.).

3T3-adipocytes = assay: 2-deoxy-D-[3H] glucose uptake in 3T3-L1 adipocytes; type: cell-based, mouse
Experimental: as §2
Glucose uptake activity was analyzed by measuring the uptake of 2-deoxy-D-[^3H] glucose as described previously (Sakoda et al. (1999) Diabetes, 48:1365-1371). Briefly, confluent 3T3-L1 adipocytes grown in 6-well plates were washed twice with serum-free DMEM and incubated with 2 ml of the same medium at 37° C. for 2 hours. The cells were washed 3 times with Krebs-Ringer-HEPES (KRH) buffer and incubated with 2 ml KRH buffer at 37° C. for 30 minutes. Insulin (6 nM) and/or Cr(pa)3 (0-25 μM) were then added to adipocytes accompanying the procedure of differentiation. Glucose uptake was initiated by the addition of 0.1 ml KRH buffer and 2-deoxy-D-[^3H] glucose (0.2 μCi/ml) and 5 mM glucose as final concentrations. Glucose uptake was terminated by washing the cells three times with cold PBS. The cells were lysed overnight with 1 ml 0.5M NaOH and 0.1% SDS (w/v). The radioactivity retained by the cell lysates was determined by a scintillation counter (Beckmann LC 6000IC) and normalized to protein amount measured with a Micro BCA Protein Assay Kit (Pierce Chemical, Rockford, Ill.).

ob/ob(+/+) mice [9] = assay: Lipid-peroxidation (malondialdehyde) and protein carbonyl in liver homogenate of treated mice; type: in vivo, mouse; settings: obese mice, 150 μg/kg/day 6 weeks, vs untreated obese
Text: All animal treatment procedures described in this study were approved by the Animal Care and Use Committee at University of Wyoming (Laramie, Wyo.). Homozygous B6.Vlep/J male mice purchased from the Jackson Laboratory (Bar Harbor, Me.) at age 5 weeks were divided randomly into two weight-matched groups, marked as ob/ob(+/+) control and ob/ob(+/+) treatment (n=12). Number and age-matched normal C57 mice were used as lean control. All animals were maintained on conventional laboratory diet under well-controlled conditions of temperature (22±2° C.), humidity (55±5%) and 12 hours/12 hours light-dark cycle and had ad libitum access to water and standard rodent chow. […] Weights of body and other organs were measured with a standard laboratory scale.
The end product of lipid-peroxidation, namely malondialdehyde (MDA), was estimated in the liver tissue homogenates by the colorimetric kit (Bioxytech LPO-586, Portland, Oreg.) using 1,1,3,3-tetra-ethoxypropane as a standard according to the manufacturer's specifications. This assay is based on the reaction of a chromogenic reagent N-methyl-2-phenylindole with MDA at 45° C. which yields a stable chromophore with absorbance maxima at 586 nm. […]

N[C@H](Cc1ccccc1)C(=O)O.[Cr+3] [Cr(pa)3, chromium (III) D-phenylalanine]
blood glucose level after insulin-challenge, lean mice (ob/ob(+/+) mice [1]): failed to further lower the blood glucose level
AUC of glucose, lean mice (ob/ob(+/+) mice [2]; lean mice, treated vs untreated): no significant changes
serum glucose levels post-glucose-challenge (ob/ob(+/+) mice [2]; ob/ob(+/+) mice, 150 μg/kg/d 6 weeks, 15 and 60 minutes, vs untreated): significantly lower
integrated AUC over 120 minutes of glucose (ob/ob(+/+) mice [2]; ob/ob(+/+) mice, 150 μg/kg/d 6 weeks, vs untreated): significantly lower
in vitro lipid-peroxidation (malondialdehyde equivalents) [3]: inhibited
phosphorylation levels of Akt (Akt [4]; Cr(pa)3 alone, absence of insulin): did not alter
stimulation of insulin-stimulated Akt phosphorylation compared to chromium picolinate (Akt [4]; equimolar concentrations): greater stimulation
in vitro Akt phosphorylation among various chromium complexes (Akt [4]; insulin 10 nM, vs Cr(Pic)3, Cr(AcAc)3, Cr(Sal)3, CrCl3): greatest amount
insulin-stimulated Akt (thr308) phosphorylation (Akt [4]; pretreatment, insulin 10 nM, concentration- and time-dependent): further increase
DNA strand breaks (supercoiled to circular nicked pUC19) (pUC19 DNA): failed to induce any strand breaks
difference in body weight ([5]; ob/ob(+/+) mice treated vs untreated): no significant difference
body-mass indices (body, heart, liver, kidney weights) ([5]; obese mice, 150 μg/kg/day six weeks): did not alter
protein levels of insulin receptor (insulin receptor beta; 3T3-adipocytes): does not increase
IRβ phosphorylation induced by submaximal insulin (insulin receptor beta; insulin 1 nM): not altered
insulin-stimulated IRβ tyrosine phosphorylation (insulin receptor beta; pretreatment for various time or at different concentrations, insulin 10 nM 10 minutes): not altered
levels of phospho-Akt in liver homogenate (Akt [6]; oral 150 μg/kg/day 6 weeks, basal): failed to significantly enhance
levels of total Akt protein in liver homogenate (Akt [6]; oral treatment): Neither did the treatment alter
phosphorylation of insulin-receptors in liver (Akt [6]; same blots reprobed for phosphorylated insulin receptor beta): no changes
degradation of deoxyribose [7]: failed to cause any degradation of deoxyribose
serum HDL-cholesterol levels (ob/ob(+/+) mice [8]; 150 μg/kg/day 6 weeks): did not alter
total serum cholesterol levels (ob/ob(+/+) mice [8]; 150 μg/kg/day 6 weeks (Example 2)): significant lowering
plasma cholesterol levels (ob/ob(+/+) mice [8]; 150 μg/kg/day six weeks (Example 1)): significantly attenuated
insulin-stimulated glucose uptake (3T3-adipocytes; Cr(pa)3 5 and 25 μM, insulin 6 nM, vs insulin-stimulated untreated cells): significantly augmented
basal glucose uptake (3T3-adipocytes; absence of insulin): did not have any effect
malondialdehyde (lipid-peroxidation) in liver homogenate (ob/ob(+/+) mice [9]): significantly lower
protein carbonyl formation in liver homogenate (ob/ob(+/+) mice [9]): significantly lower

From patent US7271278B2, “Application of chromium-amino acid complexes in the treatment of diabetes and other diseases” (The University of Wyoming, priority 2005, dated 2007)
